Entries after “also recorded” stand apart in the source; their conditions may differ.
Tests used:
iNKT [1] = assay: iNKT cytokine production in response to αGC in vivo (wt mice)
Procedure: (§1) To verify the cytokine profile, iNKT were isolated (>90% purity) and stimulated in vitro with αGC.
(§2) Mice were injected i.p. with 2 μg of αGC or vehicle, and mice were sacrificed after 5 hours or 4 days, at the time of metabolic analysis. Single cell suspension of splenocytes, LMNC, and adipose tissue SVF were obtained as before, but with the inclusion of Brefeldin A in all media. Single cell suspensions of splenocytes or liver mononuclear cells (LMC) were stained firstly with cell surface labeling anti-CD3 mAb and αGC-loaded CD1d tetramer. Cells were then fixed, permeabilized, and intracellular cytokine stained for IL-4, IL-10 and IFN-γ using Cytofix/cytoperm (BD Biosciences), according to the manufacturer's instructions.

iNKT cells [2] = assay: αGC treatment of obese Jα18 KO mice (no iNKT cells), control; assay type: in vivo; conditions: 4 days post αGC
Procedure: (§3) The prototypical ligand for iNKT cells is the glycolipid, αGC. We investigated whether αGC treatment could activate the residual iNKT cells in obesity and improve metabolic outcome (FIGS. 16A-16H).
(§4) Wt, Jα18 KO and CD1d KO were weighed weekly and food intake was monitored on HFD. Body fat content was measured by an X-ray emitting DEXA scan, performed after mice were sacrificed. Whole abdominal adipose fat pads were weighed after dissecting out the testes and lymph nodes. After 6 weeks on HFD, fasting blood glucose (OneTouch Ultra) and insulin concentrations (Crystal Chem ELISA) were measured. For glucose tolerance tests, fasted (10 h) mice received 1 g glucose per kg body weight intraperitoneally (i.p); for insulin resistance, the homeostatic model assessment of insulin resistance (HOMA-IR) was used (Matthews et al., Diabetologia 28:412-419, 1985) was used: fasting blood glucose×fasting insulin/22.5. Two samples of 5 mm liver were collected and fixed in formalin overnight, prior to paraffin mounting and preparation of ME or Oil Red 0 stained slides for measurement of fatty liver or adipose prior to αGC (or control) treatment. For H&E and Oil Red O staining, biopsies were viewed using the 20× objective. Degree of fatty liver was measured by Oil Red O staining intensity around 5 portal tract areas per slide.
as §2

iNKT cells [3] = assay: αGC treatment of normal weight mice on SFD; assay type: in vivo
Procedure: as §3
as §4, with “After 6 weeks on HFD, fasting blood glucose (OneTouch Ultra) and insulin concentrations (Crystal Chem ELISA) were measured.” left out
Mice were injected i.p. with 2 μg of αGC or vehicle, and mice were sacrificed after 5 hours or 4 days, at the time of metabolic analysis. […]

iNKT cells [4] = assay: Effect of αGC on iNKT cells in fat, liver and spleen of obese mice; assay type: in vivo; conditions: after 6 hours
iNKT cells [5] = assay: as above; assay type: in vivo
Procedure: Single cell suspensions of splenocytes, liver mononuclear cells (LMNCs), and adipose SVF were blocked with anti-CD16/32 mAb and stained for 30 min at 4° C. in the dark with PBS-57-loaded or empty CD1d tetramer-PE (NIH tetramer facility) and CD3 (1:150 dilution, eBiosciences). Macrophages were labeled with phycoerythrin-conjugated antibody to F4/80 (1 in 100) and CD11c (1 in 200) and CD206 (1 in 200) to differentiate M1 from M2 macrophages in the SVF as previously described.
as §2

iNKT cells [6] = assay: αGC treatment of obese wt mice on HFD, metabolic outcome 4 days post-injection; assay type: in vivo
Procedure: as §3, §4
Adipocyte size and number were measured by osmium and immunohistochemistry. Two samples of 20-30 mg of adipose tissue per mouse were immediately fixed in osmium tetroxide (3% solution in collidine 0.05 M), minced into 1 mm pieces and incubated in the dark at room temperature for 48 hours. Adipose cell size and number were determined by a Beckman Coulter Multisizer III Counter with a 400 μm aperture. Adipose tissue was also fixed in formalin overnight, prior to paraffin mounting and preparation of H&E slid s. Adipocyte number was counted per field of view, in ten fields per sample and related back to the original weight of each fat pad.
as §2

iNKT [7] = conditions: literature statement; cited from earlier work
iNKT [8] = assay: In vitro iNKT cytokine production stimulated by αGC-loaded CD1d+ C1R cells; assay type: cell-based, mice; conditions: isolated iNKT stimulated with αGC
Text: as §1

IL-4 and IL-10 = assay: Neutralizing IL-4 and IL-10 prior to αGC treatment, metabolic outcomes after 4 days; assay type: in vivo, mice; conditions: IL-4 and IL-10 neutralized before αGC injection
Text: As adipose tissue iNKT cells are skewed towards IL-4 and IL-10 production, we next investigated whether IL-4 and IL-10 were mediators of this protection seen by αGC treatment. We neutralized IL-4 and IL-10 prior to αGC treatment and measured metabolic outcomes after 4 days.

SMILES: CCCCCCCCCCCCCCCCCCCCCCCCCC(=O)NC(COC1OC(CO)C(O)C(O)C1O)C(O)C(O)CCCCCCCCCCCCCC (stereo not drawn) [αGC, α-galactosylceramide]
- IL-4 production by adipose iNKT in vivo (iNKT [1]; following injection of αGC): slightly less IL-4
- IL-10 production by adipose iNKT in vivo (iNKT [1]; following injection of αGC, vs liver and spleen): significantly more IL-10
- IFNγ production by adipose iNKT in vivo (iNKT [1]; following injection of αGC, vs liver or spleen): did not produce IFNγ
- IFNγ production by spleen and liver iNKT in vivo (iNKT [1]; response to αGC): copious IFNγ
- IL-4 production by spleen and liver iNKT in vivo (iNKT [1]; response to αGC): less IL-4
- IL-10 production by spleen and liver iNKT in vivo (iNKT [1]; response to αGC): very low levels of IL-10
- GTT (iNKT cells [2]): not seen; also recorded: did not affect
- fasting glucose (iNKT cells [2]): improvement in fasting glucose was not seen; also recorded: did not affect
- weight loss (iNKT cells [2]): weight loss was not seen
- GTT (iNKT cells [3]): did not affect
- fasting glucose (iNKT cells [3]): did not affect
- invariant TCR expression on iNKT cells (iNKT cells [4]): down-regulation of the invariant TCR after 6 hours
- IFNγ production by adipose tissue iNKT cells (iNKT cells [5]; 4-5 hours, vs spleen and liver): little IFNγ
- IL-4 and IL-10 production by adipose tissue iNKT cells (iNKT cells [5]; 4-5 hours, vs spleen and liver): more IL-4 and IL-10
- expansion of iNKT cells in fat (adipose tissue) (iNKT cells [5]; 4 days post-injection): expansion was greater in fat; also recorded: dramatic expansion
- cytokine production by adipose tissue iNKT cells (iNKT cells [5]; day 4 post-injection): still producing cytokines at day 4; also recorded: produced IL-4, IL-10, and IFN-γ at day 4; also recorded: remained actively producing cytokines
- expansion of iNKT cells in spleen and liver (iNKT cells [5]; day 4 post-injection): expansion of iNKT cells by day 4
- cytokine production by liver and spleen iNKT cells (iNKT cells [5]; within 4-5 hours): produced both IFNγ and IL-4
- % body fat (DEXA) (iNKT cells [6]; 4 days post αGC injection): lost a significant amount; also recorded: decreased
- adipocyte number (iNKT cells [6]; 4 days post αGC injection): did not affect cell number; also recorded: did not differ
- adipocyte size (iNKT cells [6]; 4 days post αGC injection): rapid and dramatic reduction in adipocyte size; also recorded: decreased
- circulating leptin (iNKT cells [6]; 4 days post αGC injection): significantly improved; also recorded: decreased
- glucose tolerance test (GTT) (iNKT cells [6]; 4 days post αGC injection): improved GTT, returning it to almost normal
- insulin resistance / insulin sensitivity (iNKT cells [6]; 4 days post αGC injection): significantly improved insulin resistance; also recorded: increased insulin sensitivity
- lean mass (DEXA) (iNKT cells [6]; 4 days post αGC injection): did not differ
- serum IL-4 (iNKT cells [6]; 4 days post αGC injection): non-significant increase
- serum IL-6 (iNKT cells [6]; 4 days post αGC injection): decreased serum IL-6
- serum TNFα (iNKT cells [6]; 4 days post αGC injection): increased serum TNF-a
- serum triglycerides (circulating TGL) (iNKT cells [6]; 4 days post αGC injection): significantly improved; also recorded: decreased circulating TGL
- fat deposition in the liver (Oil Red O) (iNKT cells [6]; 4 days post αGC injection, vs PBS): fat droplets were smaller and less frequent
- fasting blood glucose (iNKT cells [6]; 4 days post αGC injection, vs PBS control): marked reduction of fasting blood glucose
- overall weight (iNKT cells [6]; one i.p. injection of αGC, continued HFD for 4 days, vs PBS/vehicle): lost a significant amount of overall weight
- activation of iNKT (iNKT [7]): activate iNKT
- IL-10 production by adipose iNKT in vitro (iNKT [8]; vs liver or spleen): significantly more IL-10 per cell
- IFNγ production by adipose iNKT in vitro (iNKT [8]; vs splenic or hepatic iNKT): low levels of IFNγ; also recorded: significantly less IFNγ
- GTT (IL-4 and IL-10): prevented improvement
- fasting glucose (IL-4 and IL-10): prevented improvement

Reference: US9907848B2, “Methods and compositions for treatment of metabolic disorders” (Beth Israel Deaconess Medical Center, Inc., priority 2010, dated 2018)
